Data: the supplement of paper PMC4862054
Values joined by “and” are separate entries in the source; they are usually repeats but may differ in a detail not shown here. Equal entries are not always repeated.

Tests used:
Test in all cases: normalised viability (% of control), CellTiter-Blue; higher = more viable cells (about 100 = DMSO control)
Details in all cases: incubation time: 72 h
HDQ-P1 = tested on: HDQ-P1
Procedure, shortened: (§1)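 Each value is normalised viability at a single listed concentration of the series. Breast cancer cell lines in 384-well plates were incubated 72 h with compound and read by CellTiter-Blue fluorescence at 560/590 nm, with vehicle set to 100 and a positive kill control to 0 on every plate.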

CAL-148 = tested on: CAL-148
Procedure, shortened: as §1

MDA-MB-436 = tested on: MDA-MB-436
Procedure, shortened: as §1

SK-BR-3 = tested on: SK-BR-3
Procedure, shortened: as §1

BT-474 = tested on: BT-474
Procedure, shortened: as §1

BT-549 = tested on: BT-549
Procedure, shortened: as §1

MDA-MB-453 = tested on: MDA-MB-453
Procedure, shortened: as §1

HCC1143 = tested on: HCC1143
Procedure, shortened: as §1

HCC1599 = tested on: HCC1599
Procedure, shortened: as §1

CCN(CC)CCCC(C)Nc1ccnc2cc(Cl)ccc12 (configuration not stated) [Chloroquine]
normalised viability [%]
Details | BT-474 | BT-549 | CAL-148 | HCC1143 | HCC1599 | HDQ-P1 | MDA-MB-436 | MDA-MB-453 | SK-BR-3
0.297 nM | – | – | 88.5 | – | – | 107 | – | 108 | –
0.99 nM | 109 | 88.3 | – | 97.8 | 100 | – | 133 | – | 103
2.97 nM | – | – | 89.1 | – | – | 113 | – | 111 | –
9.9 nM | – | – | 89.4 | – | – | 116 | – | 105 | –
99 nM | 108 | 95.6 | – | 89.2 | 85.6 | – | 104 | – | 93.4
990 nM | 111 | 108 | – | 93.4 | 119 | – | 141 | – | 101

Cc1cn(-c2cc(NC(=O)c3ccc(C)c(Nc4nccc(-c5cccnc5)n4)c3)cc(C(F)(F)F)c2)cn1 [Nilotinib]
Details | normalised viability
BT-474, 10 nM | 107% and 99.8%
BT-474, 1000 nM | 93.9% and 106%
BT-474, 10000 nM | 92.1% and 103%
BT-549, 10 nM | 97.3% and 88.6%
BT-549, 1000 nM | 71.5% and 73.6%
BT-549, 10000 nM | 43.4% and 40.7%
CAL-148, 3 nM | 77% and 88.5%
CAL-148, 30 nM | 86.2% and 93.4%
CAL-148, 100 nM | 90.8% and 95.3%
HCC1143, 10 nM | 70.6% and 81.2%
HCC1143, 1000 nM | 98.7% and 101%
HCC1143, 10000 nM | 65% and 65.2%
HCC1599, 10 nM | 93.3% and 95.8%
HDQ-P1, 3 nM | 92.5% and 86.2%
HDQ-P1, 30 nM | 87.3% and 81.5%
HDQ-P1, 100 nM | 95.3% and 83.1%
MDA-MB-436, 10 nM | 98.2% and 88.3%
MDA-MB-436, 1000 nM | 75.7% and 76.8%
MDA-MB-436, 10000 nM | 92.5% and 75.2%
MDA-MB-453, 3 nM | 111% and 103%
MDA-MB-453, 30 nM | 95.6% and 90%
MDA-MB-453, 100 nM | 91.7% and 103%
SK-BR-3, 10 nM | 104% and 94.5%
SK-BR-3, 1000 nM | 100% and 96.5%
SK-BR-3, 10000 nM | 90.4% and 94.3%

CC[C@H](CO)Nc1nc(NCc2ccccc2)c2ncn(C(C)C)c2n1 [Roscovitine]
normalised viability [%]
Details | BT-474 | BT-549 | CAL-148 | HCC1143 | HCC1599 | HDQ-P1 | MDA-MB-436 | MDA-MB-453 | SK-BR-3
3 nM | – | – | 77.4 | – | – | 101 | – | 105 | –
10 nM | 109 | 83.8 | – | 84.3 | 109 | – | 107 | – | 90.3
30 nM | – | – | 85.8 | – | – | 103 | – | 114 | –
100 nM | – | – | 83.5 | – | – | 98.3 | – | 109 | –
1000 nM | 96.5 | 84.4 | – | 88.1 | 95.8 | – | 92.7 | – | 104
10000 nM | 79.4 | 76.4 | – | 74.7 | 64.4 | – | 79.4 | – | 87

CC(=O)[C@]1(O)Cc2c(O)c3c(c(O)c2[C@@H](O[C@H]2C[C@H](N)[C@H](O)[C@H](C)O2)C1)C(=O)c1ccccc1C3=O [Idarubicin]
normalised viability [%]
Details | BT-474 | BT-549 | CAL-148 | HCC1143 | HCC1599 | HDQ-P1 | MDA-MB-436 | MDA-MB-453 | SK-BR-3
0.3 nM | – | – | 91.7 | – | – | 118 | – | 108 | –
1 nM | 97.3 | 108 | – | 96 | 111 | – | 113 | – | 107
3 nM | – | – | 93.2 | – | – | 120 | – | 98.4 | –
10 nM | – | – | 63.2 | – | – | 104 | – | 100 | –
100 nM | 61.8 | 50 | – | 61 | 102 | – | 57.5 | – | 26.4
1000 nM | 7.38 | 9.06 | – | 30.1 | 49.2 | – | 18.8 | – | 4.23

CO[C@@]12[C@H](COC(N)=O)C3=C(C(=O)C(C)=C(N)C3=O)N1C[C@@H]1N[C@@H]12 [Mitomycin C]
normalised viability [%]
Details | BT-474 | BT-549 | CAL-148 | HCC1143 | HCC1599 | HDQ-P1 | MDA-MB-436 | MDA-MB-453 | SK-BR-3
3 nM | – | – | 97.3 | – | – | 105 | – | 124 | –
10 nM | 112 | 85 | – | 78.3 | 110 | – | 100 | – | 99.2
30 nM | – | – | 102 | – | – | 96.3 | – | 94.5 | –
100 nM | – | – | 100 | – | – | 104 | – | 91.4 | –
1000 nM | 95.5 | 84.9 | – | 72.4 | 73.2 | – | 76.2 | – | 61.5
10000 nM | 53.7 | 14.1 | – | 20.4 | 14.6 | – | 17.6 | – | 10.4

CC(C)C[C@H](NC(=O)[C@@H](COC(C)(C)C)NC(=O)[C@H](Cc1ccc(O)cc1)NC(=O)[C@H](CO)NC(=O)[C@H](Cc1c[nH]c2ccccc12)NC(=O)[C@H](Cc1cnc[nH]1)NC(=O)[C@@H]1CCC(=O)N1)C(=O)N[C@@H](CCCNC(=N)N)C(=O)N1CCC[C@H]1C(=O)NNC(N)=O [Goserelin]
normalised viability [%]
Details | BT-474 | BT-549 | CAL-148 | HCC1143 | HCC1599 | HDQ-P1 | MDA-MB-436 | MDA-MB-453 | SK-BR-3
3 nM | – | – | 92 | – | – | 104 | – | 115 | –
10 nM | 115 | 85.9 | – | 82.8 | 107 | – | 95.6 | – | 98.8
30 nM | – | – | 97 | – | – | 109 | – | 101 | –
100 nM | – | – | 98.9 | – | – | 103 | – | 102 | –
1000 nM | 111 | 88 | – | 95 | 83.8 | – | 97.3 | – | 106
10000 nM | 131 | 103 | – | 89 | 90.2 | – | 94 | – | 94.7

O=C(CCCCCCC(=O)Nc1ccccc1)NO [Vorinostat]
Details | normalised viability
BT-474, 10 nM | 98.6% and 105%
BT-474, 1000 nM | 92.6% and 78.7%
BT-474, 10000 nM | 3.63% and 2.44%
BT-549, 10 nM | 108% and 102%
BT-549, 1000 nM | 89.2% and 82.3%
BT-549, 10000 nM | 48% and 33.2%
CAL-148, 3 nM | 78% and 95.3%
CAL-148, 30 nM | 90.2% and 100%
HCC1143, 10 nM | 86.1% and 105%
HCC1143, 1000 nM | 86.9% and 84.5%
HCC1143, 10000 nM | 21.4% and 24.2%
HCC1599, 10 nM | 110% and 97.9%
HCC1599, 1000 nM | 85.5% and 99.2%
HCC1599, 10000 nM | 20.5%
HDQ-P1, 3 nM | 99.4% and 88.7%
HDQ-P1, 30 nM | 97.2% and 84.3%
HDQ-P1, 100 nM | 95.6% and 87.5%
MDA-MB-436, 10 nM | 105% and 104%
MDA-MB-436, 10000 nM | 41.3% and 40.6%
MDA-MB-453, 3 nM | 107% and 96.8%
SK-BR-3, 10 nM | 104% and 95.2%
SK-BR-3, 1000 nM | 54.3% and 45.8%
SK-BR-3, 10000 nM | 3.79% and 4.28%

CNC(=O)c1ccccc1Sc1ccc2c(/C=C/c3ccccn3)n[nH]c2c1 [Axitinib]
normalised viability [%]
Details | BT-474 | BT-549 | CAL-148 | HCC1143 | HCC1599 | HDQ-P1 | MDA-MB-436 | MDA-MB-453 | SK-BR-3
3 nM | – | – | 83 | – | – | 101 | – | 103 | –
10 nM | 112 | 96.6 | – | 89.9 | 105 | – | 103 | – | 91
30 nM | – | – | 95.3 | – | – | 106 | – | 108 | –
100 nM | – | – | 90.1 | – | – | 92.1 | – | 97.2 | –
1000 nM | 105 | 92.6 | – | 96.2 | 84.8 | – | 21.7 | – | 88.9
10000 nM | 76.4 | 42.5 | – | 57.2 | 62 | – | 46 | – | 63.8

C/C(=C\c1csc(C)n1)[C@@H]1C[C@@H]2O[C@]2(C)CCC[C@H](C)[C@H](O)[C@@H](C)C(=O)C(C)(C)[C@@H](O)CC(=O)N1 [Ixabepilone]
normalised viability [%]
Details | BT-474 | BT-549 | CAL-148 | HCC1143 | HCC1599 | HDQ-P1 | MDA-MB-436 | MDA-MB-453 | SK-BR-3
0.3 nM | – | – | 95.2 | – | – | 91.1 | – | 108 | –
1 nM | 109 | 69.2 | – | 79.3 | 98.5 | – | 88.8 | – | 87.8
3 nM | – | – | 97.1 | – | – | 76.4 | – | 87.4 | –
10 nM | – | – | 92.8 | – | – | 95.3 | – | 87.3 | –
100 nM | 115 | 96.9 | – | 80.7 | 87.6 | – | 90.1 | – | 82.5
1000 nM | 26 | 19.6 | – | 25.6 | 81.2 | – | 51.7 | – | 12.6
